These results are taken from ChEMBL document CHEMBL1201862, “PubChem BioAssay data set” (2004).

Test systems include M14; HT-29; OVCAR-4; HCT-15; SK-MEL-28; LOX IMVI; OVCAR-5; SNB-75; U-251; SK-MEL-2; 786-0; HCT-116; MDA-MB-435; SF-539; CCRF-CEM; K562; SW-620; IGROV-1; MDA-N; A498.
What all share (assay): DTP human tumour cell line panel, 48 h

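How tested: cells in 96-well plates exposed to compound for 48 hours at five concentrations. GI50 = concentration required for 50% inhibition of growth.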 Activity calls are given as the source filed them. Rule as the data show it: active = GI50 up to about 1.1 µM and inactive = higher. Where only a bound is given, the exact number is not on record here.

A word on the GI50: it is the concentration giving 50% growth inhibition. Take `O=C1CCC(Cc2ccc(Cl)cc2Cl)C(=O)N1` (configuration not stated): the GI50 was > 100 µM (inactive) in the assay on M14; > 100 µM (inactive) in the assay with HT-29; > 100 µM (inactive) in the assay on OVCAR-4; 82.8 µM with HCT-15; > 100 µM (inactive) in the assay with SK-MEL-28; > 100 µM (inactive) in the assay with LOX IMVI. For the same compound, the GI50 in the assay with OVCAR-5 is > 100 µM (inactive); in the assay on SNB-75 it was 64.6 µM (inactive); in the assay with U-251 it was > 100 µM (inactive); with SK-MEL-2, > 100 µM (inactive); in the assay with 786-0, > 100 µM (inactive); in the assay on HCT-116, > 100 µM (inactive). Moreover, the GI50 with MDA-MB-435, in the assay on SF-539, in the assay with CCRF-CEM, with K562, in the assay with SW-620 and in the assay with IGROV-1 was > 100 µM (inactive) throughout.

For the compound `COc1cc2c(c(OC)c1OC)C(=O)[C@H](O)[C@H]2NC(N)=O`, the GI50 is 47.6 µM (inactive) with M14; > 100 µM (inactive) with HT-29; 27.7 µM in the assay on HCT-15; > 100 µM (inactive) in the assay on SK-MEL-28; 72.1 µM (inactive) in the assay on LOX IMVI; 76.7 µM (inactive) with OVCAR-5. In addition, the GI50 with SNB-75 is 23.3 µM (inactive); with U-251, 44.2 µM (inactive); in the assay on MDA-N, > 100 µM (inactive); in the assay with 786-0, > 100 µM (inactive); in the assay with HCT-116, 79.4 µM (inactive); in the assay on MDA-MB-435 it was > 100 µM (inactive). The GI50 with SF-539 is > 100 µM (inactive); with CCRF-CEM, > 100 µM (inactive); in the assay on K562, > 100 µM (inactive); in the assay on SW-620, > 100 µM (inactive); in the assay with IGROV-1, 49.5 µM (inactive).

Regarding `CC1=C(C(N)=O)C(c2ccncc2)C(C#N)C(=O)N1` (configuration not stated), the GI50 with M14 is > 100 µM (inactive); in the assay with A498, > 100 µM (inactive); in the assay with OVCAR-4 it was > 100 µM (inactive); in the assay on HCT-15, over 100 µM; in the assay with SK-MEL-28, > 100 µM (inactive); in the assay on LOX IMVI it was > 100 µM (inactive). Moreover, the GI50 in the assay on SNB-75, in the assay on U-251, with SK-MEL-2, in the assay with 786-0, in the assay with HCT-116 and in the assay with MDA-MB-435 was > 100 µM (inactive) in each case. In addition, the GI50 in the assay on SF-539, in the assay with CCRF-CEM, in the assay on K562, in the assay with SW-620 and in the assay with IGROV-1 was > 100 µM (inactive) throughout.

Turning to `CC1=NN(C(=O)CC(=O)N(C(=O)c2ccccc2Cl)c2ccc(C)cc2)C(=O)C1/N=N/c1ccc([N+](=O)[O-])cc1` (configuration not stated), the GI50 with M14 is > 96.2 µM (inactive); in the assay on A498 it was > 58.5 µM (inactive); in the assay on HT-29, > 63.4 µM (inactive); in the assay with OVCAR-4, 67.9 µM (inactive); in the assay with HCT-15, over 43.8 µM; in the assay with SK-MEL-28, > 100 µM (inactive). Moreover, the GI50 with LOX IMVI was 23.9 µM (inactive); with OVCAR-5 it was > 46.1 µM (inactive); in the assay with SNB-75, > 43.6 µM (inactive); in the assay with U-251, 19.6 µM (inactive); with SK-MEL-2 it was > 100 µM (inactive); with 786-0, 29 µM (inactive). In addition, the GI50 in the assay with HCT-116 was 17.7 µM (inactive); in the assay with SF-539 it was 23.7 µM (inactive); with CCRF-CEM, > 49.8 µM (inactive); in the assay with K562 it was > 53.5 µM (inactive); in the assay on SW-620 it was > 39.2 µM (inactive); in the assay with IGROV-1, 56.2 µM (inactive).

On to `O=C(/C=C/c1ccccc1Cl)c1cccc2ccccc12`, for which the GI50 with M14 is 16.3 µM (inactive); in the assay on A498, 14.4 µM (inactive); in the assay with HT-29, 10.4 µM (inactive); with OVCAR-4, 4.81 µM (inactive); with HCT-15 it was 3.75 µM; in the assay on SK-MEL-28, 13.7 µM (inactive). Further, the GI50 in the assay on LOX IMVI was 11.4 µM (inactive); in the assay with OVCAR-5, 13.6 µM (inactive); in the assay with SNB-75 it was 6.97 µM (inactive); in the assay on U-251, 2.66 µM (inactive); in the assay on SK-MEL-2, 18.4 µM (inactive); in the assay with 786-0, 5.15 µM (inactive). Also, the GI50 is 3.71 µM (inactive) with HCT-116; 10.8 µM (inactive) with SF-539; 4.82 µM (inactive) in the assay with CCRF-CEM; 4.38 µM (inactive) with K562; 1.88 µM (inactive) in the assay on SW-620; 15.3 µM (inactive) in the assay with IGROV-1.

Consider `CSC(=S)NN=C1CCCCC1`, for which the GI50 in the assay on M14 was 13.6 µM (inactive); in the assay with A498, > 100 µM (inactive); in the assay with HT-29 it was 47.6 µM (inactive); with OVCAR-4 it was 34.3 µM (inactive); with HCT-15 it was 29.9 µM; in the assay with SK-MEL-28, 37.8 µM (inactive). Moreover, the GI50 is 20.5 µM (inactive) in the assay on LOX IMVI; 50.6 µM (inactive) in the assay with SNB-75; 29.1 µM (inactive) in the assay on U-251; 52.6 µM (inactive) with SK-MEL-2; 37.3 µM (inactive) with 786-0; 27.2 µM (inactive) in the assay on HCT-116. For the same compound, the GI50 in the assay on MDA-MB-435 is 18.7 µM (inactive); with SF-539, 24.4 µM (inactive); in the assay with CCRF-CEM, 26.1 µM (inactive); in the assay with K562, 27.4 µM (inactive); in the assay with SW-620, 48.2 µM (inactive); in the assay with IGROV-1, 12.7 µM (inactive).

Take `COc1ccc(C(=O)C2=NON3OC23C(=O)c2ccc(OC)cc2)cc1` (configuration not stated): the GI50 was 15.4 µM (inactive) with M14; 13.7 µM (inactive) in the assay on A498; 22.4 µM (inactive) with HT-29; 5.74 µM (inactive) in the assay on OVCAR-4; 15.5 µM in the assay with HCT-15; 17.9 µM (inactive) in the assay with SK-MEL-28. Further, the GI50 in the assay with LOX IMVI is 5.58 µM (inactive); in the assay with OVCAR-5, 20.7 µM (inactive); in the assay on SNB-75, 24.7 µM (inactive); in the assay with U-251, 16 µM (inactive); with SK-MEL-2, 19.5 µM (inactive); with 786-0 it was 3.44 µM (inactive). Moreover, the GI50 is 7.26 µM (inactive) with HCT-116; 10.3 µM (inactive) in the assay on SF-539; 2.34 µM (inactive) in the assay with CCRF-CEM; 3.12 µM (inactive) with K562; 3.31 µM (inactive) with SW-620; 11.6 µM (inactive) with IGROV-1.

Turning to `CCOC(=O)C1=C(C)NC(=O)NC1c1ccc(N(CCCl)CCCl)cc1Cl` (configuration not stated), the GI50 is 15.8 µM (inactive) in the assay with M14; 15.9 µM (inactive) with A498; 16 µM (inactive) in the assay with HT-29; 17.2 µM (inactive) with OVCAR-4; 17.1 µM with HCT-15; 17.6 µM (inactive) in the assay with SK-MEL-28. Moreover, the GI50 is 15.9 µM (inactive) with LOX IMVI; 17.9 µM (inactive) with OVCAR-5; 14.9 µM (inactive) in the assay on SNB-75; 16.6 µM (inactive) with U-251; 16.3 µM (inactive) with SK-MEL-2; 15.8 µM (inactive) in the assay with 786-0. Also, the GI50 in the assay on HCT-116 is 14.3 µM (inactive); with MDA-MB-435, 19 µM (inactive); with SF-539, 17.2 µM (inactive); with K562 it was 12 µM (inactive); with SW-620, 17.9 µM (inactive); with IGROV-1 it was 15.1 µM (inactive).

Regarding `CCOC1=C2C(C)(CCC3[C@@]4(C)C=CC(=O)C(C)(C)C4CC(O)[C@@]23C)C(c2ccoc2)C1=O` (some centres not stated), the GI50 is 21.8 µM (inactive) in the assay on M14; 17.3 µM (inactive) in the assay with A498; 10.9 µM (inactive) in the assay on HT-29; 17.2 µM (inactive) in the assay with OVCAR-4; 11.7 µM in the assay on HCT-15; 15.6 µM (inactive) in the assay with SK-MEL-28. Moreover, the GI50 was 14.9 µM (inactive) with LOX IMVI; 19.2 µM (inactive) in the assay on OVCAR-5; 54.3 µM (inactive) in the assay on SNB-75; 18 µM (inactive) with U-251; 19.2 µM (inactive) in the assay on SK-MEL-2; 15.3 µM (inactive) in the assay on 786-0. Moreover, the GI50 is 11.3 µM (inactive) with HCT-116; 17.6 µM (inactive) in the assay with SF-539; 7.93 µM (inactive) in the assay with CCRF-CEM; 7.24 µM (inactive) in the assay on K562; 17.2 µM (inactive) with SW-620; 12.4 µM (inactive) in the assay on IGROV-1.

On to `COc1ccc(CCc2cc(OC)cc(OC)c2)cc1`, for which the GI50 was 25.2 µM (inactive) in the assay on M14; 17 µM (inactive) in the assay with A498; 6.11 µM (inactive) in the assay with HT-29; 27 µM (inactive) in the assay with OVCAR-4; 7.06 µM in the assay with HCT-15; 29.6 µM (inactive) in the assay with SK-MEL-28. For the same compound, the GI50 in the assay on LOX IMVI was 38.8 µM (inactive); in the assay on OVCAR-5, > 61.5 µM (inactive); with SNB-75 it was 32.9 µM (inactive); in the assay on U-251 it was 31.6 µM (inactive); with SK-MEL-2, 11.1 µM (inactive); in the assay with 786-0, 47.1 µM (inactive). The GI50 in the assay on HCT-116 was 24.3 µM (inactive); with SF-539, 31.6 µM (inactive); with CCRF-CEM, 15.6 µM (inactive); in the assay on K562, 3.34 µM (inactive); in the assay with SW-620, 5.93 µM (inactive); with IGROV-1, 43 µM (inactive).

For `O=C(c1ccc([N+](=O)[O-])cc1)C(Br)C(Br)c1ccnc2ccccc12` (configuration not stated), the GI50 in the assay on M14 was 2.8 µM (inactive); with A498 it was 3.99 µM (inactive); with HT-29, 2.9 µM (inactive); with OVCAR-4, 11.7 µM (inactive); in the assay with HCT-15, 6.76 µM; with SK-MEL-28 it was 11.1 µM (inactive). In addition, the GI50 in the assay on LOX IMVI is 2.11 µM (inactive); in the assay with OVCAR-5 it was 16.5 µM (inactive); in the assay on SNB-75, 4.06 µM (inactive); in the assay on U-251 it was 1.75 µM (inactive); in the assay with SK-MEL-2, 12.6 µM (inactive); in the assay on 786-0, 2.54 µM (inactive). In addition, the GI50 is 1.92 µM (inactive) in the assay with HCT-116; 2.98 µM (inactive) in the assay on MDA-MB-435; 6.4 µM (inactive) in the assay on SF-539; 0.352 µM (active) with CCRF-CEM; 2.83 µM (inactive) in the assay on K562; 2.09 µM (inactive) in the assay with SW-620. The GI50 with IGROV-1 was 13.7 µM (inactive).
